This note sets out measurements from patent US20260335468A1, “MOLECULAR RADIOAFTERGLOW PROBES FOR CANCER RADIODYNAMIC THERANOSTICS” (NANYANG TECHNOLOGICAL UNIVERSITY, priority 2023, published 2026).

A short description of one data set: Heat generation study. Format: physicochemical. Particulars: 100 μM, X-ray 5 mGy. How it is done:
IDPASu (100 μM, 100 μL) solution and PBS in a round cap with the diameter of 1 cm were prepared and then irradiated by X-ray at dose of 5 mGy (250 μGy·s^−1 for 20 s), respectively. The temperatures of the IDPASu solution and PBS were recorded by FUR Infrared Camera (FLIR A35-Series, FUR Systems).

Data set [1] can be described thus: ^1O2 generation at tissue depth (X-ray or light through chicken breast tissue). Format: physicochemical. As for the experimental part:
To study ^1O2 generation, a mixture of DPAS or IDPAS (100 M) and TEMP (10 mM) in PBS (0.01 M, pH 7.4, 50% DMSO) was irradiated by X-rays at 2 Gy (100 mGy s^−1 for 20 s) or 5 mGy (250 μGy s^−1 for 20 s). The ESR signals of the mixture were recorded with a Bruker A300 instrument. The ESR signal of the free radical 2,2,6,6-tetramethyl-1-piperidinyloxyl (g=2.0060) was generated by the reaction of ^1O2 with TEMP. The ^1O2 quencher NaN3 (1 mM) was added to validate the afterglow mechanism of IDPASu. Additionally, other commercially available radio sensitizers (such as acridine orange, hematoporphyrin and verteporfin) were measured and compared. The procedure of block depths was similar to that of the tissue penetration depth study and the ^1O2 generation for different depth tissues was measured. The ESR signal changes of MRAP in the absence or presence of CatB were measured in a similar way. The ESR signals of 2,2,6,6-tetramethyl-1-piperidinyloxyl from the reaction of ^1O2 with TEMP were plotted as a function of the concentration of ^1O2, which was generated by the addition of NaOCl to H2O2. This generated the standard curve between the ESR intensity and ^1O2 concentration.
The deep-tissue radiodynamic process of IDPASu was tested by measuring ^1O2 generation at different tissue depths and compared with photosensitization (FIG. 11c).

A short description of data set [2]: Radio afterglow spectra, intensity and half-life of luminophores in PBS after X-ray. Format: physicochemical. How it is done: The optical properties of DPAs and IDPAs were investigated in an aqueous solution (FIGS. 2 and 3). […] Their half-lives ranged from 9.2 to 196.8 min (FIG. 4e).
DPAs or IDPAs (100 μM) in 0.01 M PBS (pH 7.4, 50% DMSO) were irradiated by X-rays at 250 μGy s^−1 for 20 s (total, 5 mGy) under the specific setup parameter of 10 kV and 75 μA. Then, the radio afterglow signal was collected with an IVIS imaging system under the bioluminescence mode with an open filter and an acquisition time of 60 s. Finally, the radio afterglow intensities were quantified by a region-of-interest analysis using Living Image 4.3 software. In addition, the radio afterglow spectra of the candidates were acquired under the same test conditions with specific emission filters, and time courses of the signal were recorded as a function of time.

For the next data set, the system named is U87MG subcutaneous tumor. Nature of the data set: X-ray-induced afterglow in U87MG subcutaneous tumor-bearing mice. Format: in vivo, Balb/c nude mice. Particulars: local injection. How it is done: For in vivo RAI by IDPASu, subcutaneous U87-tumour-bearing mice were intratumorally injected with IDPASu(100 μM, […]) solubilized with P-cyclodextrin (100 μM). Each group has three mice. At different post-injection timepoints (0, 0.5, 1.0, 2.0, 4.0, 6.0, 8.0, 12.0, 16.0 and 24.0 h), the tumours were irradiated with X-rays (5 mGy, 250 μGy s^−1 for 20 s), followed by radio afterglow detection using the IVIS imaging system under the bioluminescence mode with an open filter and acquisition time of 120 s. Tumour-free areas were protected by a 3.4-mm-thick lead shield with a notch. […] Radio afterglow signals from brain tumours were recorded with the IVIS imaging system under the bioluminescence mode with an open filter and acquisition time of 120 s. […] The tumour sizes were calculated as per the above-mentioned equation, showing ~0 mm^3 for 1 day post-implantation, 6 mm^3 (tumour diameter, 2.3 mm) for 5 days post-implantation, 22 mm^3 for 10 days post-implantation, 43 mm^3 for 20 days post-implantation and 77 mm^3 for 30 days post-implantation. At 15 min post-intraperitoneal injection of aqueous d-luciferin sodium salt (500 μmol kg^−1) solution into mice with different tumour sizes, the bioluminescence signals from the tumour sites were recorded with the IVIS imaging system under the bioluminescence mode with an open filter and automatic acquisition time. […]

A short description of data set [3]: HPLC analysis of IDPASu after X-ray irradiation. Format: physicochemical. As for the experimental part: HPLC purification and analyses were performed with an Agilent 1260 system using methanol/H2O or acetonitrile/H2O as an eluent. X-ray irradiation was conducted with MOXTEK MAGPRO (Moxtek, Inc. 452 West 1260 North Orem, UT 84057) and the dose was calibrated by RAYSAFE R/F X2 X (FLUKE, USA). White-light irradiation was used by a xenon lamp PLS-SEX300D (Beijing Perfectlight Technology Co., Ltd.).
To study the radio afterglow mechanism, the sample of IDPASu after X-ray irradiation was analysed with HPLC and high-resolution mass spectrometry.

[4] abbreviates: X-ray 2 Gy, 100 mGy s^−1 for 20 s.

As for `COC(=C1C2CC3CC(C2)CC1C3)c1cc(O)c(I)cc1/C=C/C1=CC(=C(C#N)C#N)c2ccccc2S1` [IDPASu], in “Heat generation study”, the “heat generation upon radiation” value is on record as “did not cause any heat generation”. For the same compound, the “decrease of ^1O2 concentration at tissue depth of 1 cm, X-ray” value in data set [1] (X-ray through 1 cm tissue) was ~ 30%. In addition, in data set [1] (X-ray through 15 cm tissue), the “radiodynamic ^1O2 generation at tissue depth of 15 cm” value is on record as “still inducible”. In data set [1] (light through 1 cm tissue), the “^1O2 generation at tissue depth of 1 cm, light irradiation” value was “close to the background”. Moreover, the “radio afterglow intensity increase versus iodine-free counterpart” value in data set [2] (100 μM, PBS pH 7.4, 50% DMSO, X-ray 5 mGy) stood at 6.46 fold. Besides, in data set [2] (IDPASu solution), the “correlation of radio afterglow signal with concentration” value is given as “linear correlation”. Also, the “long-lasting radio afterglow, up to” value in data set [2] (X-ray 250 μGy s^−1 for 20 s) was ~ 25 h. In data set [2] (X-ray 250 μGy s^−1 for 20 s, aqueous solution), the “radio afterglow emission maximum” value was ~ 773 nm. For the same compound, in data set [2] (X-ray irradiation), the “radio afterglow brightness / intensity” value was “highest brightness”. Also, the “repetitive induction of radio afterglow” value in data set [2] (after ten cycles of X-ray irradiation) was “minimal intensity decrease after ten cycles”. Moreover, in the data set with U87MG subcutaneous tumor, the “Intensity per dose per mouse” value was 1.27 × 10^6 (p/s/cm2/sr)/(μg). Further, in data set [3] (setting [4]), the “conversion yield to activated IDPASu (peak at 6.0 min)” value was determined as 7.6% and the “conversion yield to dioxetane compound (peak at 14.8 min)” value amounted to 3.3%. Also, in data set [3] (one cycle at 250 μGy s^−1 for 20 s, HPLC), the “luminophore consumed by one cycle of irradiation” value is recorded as ~ 3%.
